Source: US20250084067A1, “PYRAZOLE-SUBSTITUTED CYCLOPENTANOL ESTER DERIVATIVE AND USE THEREOF” (CHIA TAI TIANQING PHARMACEUTICAL GROUP CO., LTD., priority 2022, published 2025)
Read-outs that look alike come from different tables or passages of the source.

What was measured:
[1] = molecular target: CDK2/CycA2 kinase (Homo sapiens (Human), UniProt P24941); assay: Determination of inhibitory activity against CDK2/CycA2 kinase; format: biochemical
Experimental: The wells were set in duplicate, and a control well was set. […] The resulting mixture was left to react at room temperature for 2 h, and then 5 µL of EDTA was added to terminate the reaction, followed by addition of 5 μL of a detection antibody (manufacturer: PerkinElmer, concentration: 8 nM). The mixture was incubated at room temperature for 1 h.

[2] = molecular target: CDK2 CycE1 kinase (Homo sapiens (Human), UniProt P24941); assay: Determination of inhibitory activity against CDK2 CycE1 kinase; format: biochemical
Experimental: CDK2 CycE1 kinase solution (concentration: 0.015 ng/μL) was added to assay wells at 6 μL/well, and different compounds dissolved in DMSO were added to the assay wells separately using a nanoliter pipettor, such that the final concentrations of the compounds were 300 nM to 0.07 nM. The wells were set in duplicate, and a control well was set. After incubation of the above system for 30 min, ATP (concentration: 50 μM or 5000 μM) was mixed with ULight-Myelin Basic Protein Peptide substrate (manufacturer: PerkinElmer, concentration: […]) at a ratio of 1:1, and the mixture was added to the assay wells at 4 μL/well. The resulting mixture was left to react at room temperature for 2 h, and then 5 μL of EDTA was added to terminate the reaction, followed by addition of 5 μL of a detection antibody (manufacturer: PerkinElmer, concentration: 8 nM). The mixture was incubated at room temperature for 1 h.

[3] = read-out: CDK2/CycA2 10 μM ATP (kinase) IC50
[4] = read-out: CDK2/CycE1 10 μM ATP (kinase) IC50

SMILES	IC50 ([1]; 10 μM ATP)	IC50 ([2]; 10 μM ATP)	IC50 [1, 3]	IC50 [2, 4]
C[C@H](NC(=O)O[C@@H]1CC[C@H](c2cc(Nc3ccc4c(c3)CS(=O)(=O)C4)n[nH]2)C1)C(F)(F)F [Example 63]			< 10 nM	< 10 nM
C[C@@H](NC(=O)O[C@@H]1CC[C@H](c2cc(Nc3ccc4c(c3)CS(=O)(=O)C4)n[nH]2)C1)C(F)(F)F [Example 64]			< 10 nM	< 10 nM
O=C(NC1CC1)O[C@@H]1CC[C@H](c2cc(Nc3ccc4c(c3)CS(=O)(=O)C4)n[nH]2)C1 [Example 67]	< 10 nM	< 10 nM		
CC(C)NC(=O)O[C@@H]1CC[C@H](c2cc(Nc3ccc(S(=O)(=O)NC4CC4)cn3)n[nH]2)C1 [Example 68]	< 10 nM	< 10 nM		
CC(C)NC(=O)O[C@@H]1CC[C@H](c2cc(Nc3ccc(S(C)(=N)=O)c(F)c3)n[nH]2)C1 (stereo partly drawn) [Example 70]			< 10 nM	< 10 nM
CC(C)NC(=O)O[C@@H]1CC[C@H](c2cc(Nc3ccc(NS(C)(=O)=O)c(OC(F)F)c3)n[nH]2)C1 [Example 71]			< 10 nM	< 10 nM
CC(C)NC(=O)O[C@@H]1CC[C@H](c2cc(Nc3ccc(S(C)(=N)=O)c(Cl)c3)n[nH]2)C1 (stereo partly drawn) [Example 73]			< 10 nM	< 10 nM
CC(C)NC(=O)O[C@@H]1CC[C@H](c2cc(Nc3ccc(NS(C)(=O)=O)c(C(F)F)c3)n[nH]2)C1 [Example 74]			< 10 nM	< 10 nM
[2H]C([2H])([2H])C([2H])(NC(=O)O[C@@H]1CC[C@H](c2cc(Nc3ccc(S(N)(=O)=O)c(Cl)n3)n[nH]2)C1)C([2H])([2H])[2H] [Example 77]	< 10 nM	< 10 nM		
[2H]C([2H])([2H])C([2H])(NC(=O)O[C@@H]1CC[C@H](c2cc(Nc3ccc4c(c3)CS(=O)(=O)C4)n[nH]2)C1)C([2H])([2H])[2H] [Example 78]	< 10 nM	< 10 nM		

More lines, main results first:

IC50 ([1]; 10 μM ATP)	IC50 ([2]; 10 μM ATP)	SMILES	IC50 [1, 3]	IC50 [2, 4]
< 10 nM	< 10 nM	CC(C)NC(=O)O[C@@H]1CC[C@H](c2cc(Nc3ccc(S(N)(=O)=O)cc3)n[nH]2)C1 [Example 65]		
< 10 nM	< 10 nM	CC(C)NC(=O)O[C@@H]1CC[C@H](c2cc(Nc3ccc(S(N)(=O)=O)c(C(F)(F)F)c3)n[nH]2)C1 [Example 66]		
10 to 50 nM	10 to 50 nM	CC(C)NC(=O)O[C@@H]1CC[C@H](c2cc(Nc3ccc(S(=O)(=O)N(C)C)cn3)n[nH]2)C1 [Example 69]		
< 10 nM	< 10 nM	CC(C)NC(=O)O[C@@H]1CC[C@H](c2cc(Nc3ccc(C#N)cc3)n[nH]2)C1 [Example 72]		
10 to 50 nM	< 10 nM	CC(C)NC(=O)O[C@@H]1CC[C@H](c2cc(Nc3ccc4c(c3)S(=O)(=O)CC4)n[nH]2)C1 [Example 75]		
